Experimental data: BindingDB's records for doi:10.1021/jm00076a015 (University of Pennsylvania, 1994)

Molecular target: T1, Ribonucleoside-diphosphate reductase large subunit (Mus musculus, UniProt P07742)
T1 sequence (P07742 whole entry): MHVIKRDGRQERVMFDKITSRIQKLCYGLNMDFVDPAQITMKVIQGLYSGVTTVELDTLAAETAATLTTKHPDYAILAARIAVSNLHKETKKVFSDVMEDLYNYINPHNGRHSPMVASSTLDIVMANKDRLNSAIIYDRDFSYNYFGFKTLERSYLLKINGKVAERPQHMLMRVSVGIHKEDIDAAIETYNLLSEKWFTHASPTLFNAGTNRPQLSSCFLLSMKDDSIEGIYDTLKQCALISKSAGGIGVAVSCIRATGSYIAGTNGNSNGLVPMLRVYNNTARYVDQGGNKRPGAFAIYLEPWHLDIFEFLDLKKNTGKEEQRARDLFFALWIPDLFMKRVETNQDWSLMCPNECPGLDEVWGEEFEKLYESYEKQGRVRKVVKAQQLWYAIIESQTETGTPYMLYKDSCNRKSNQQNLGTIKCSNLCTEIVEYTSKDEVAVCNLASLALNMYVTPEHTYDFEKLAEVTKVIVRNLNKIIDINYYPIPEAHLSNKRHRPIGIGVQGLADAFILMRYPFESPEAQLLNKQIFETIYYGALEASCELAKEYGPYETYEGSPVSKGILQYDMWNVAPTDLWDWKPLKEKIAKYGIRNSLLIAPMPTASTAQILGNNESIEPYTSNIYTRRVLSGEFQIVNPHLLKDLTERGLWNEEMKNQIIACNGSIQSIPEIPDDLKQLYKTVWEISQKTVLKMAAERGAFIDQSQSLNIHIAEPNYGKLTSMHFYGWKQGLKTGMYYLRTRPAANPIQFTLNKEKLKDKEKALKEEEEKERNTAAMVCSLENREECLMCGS
Test: ChEBML_195421
From the text: Inhibitory activity of compound against mammalian ribonucleotide reductase; Range is 40-42

IC50: 41 µM
Substance: Ac-AGAFTFNEDF-OH
